{
  "source": "patent US20260015582A1",
  "about": "“METHODS OF T CELL DIFFERENTIATION AND COMPOSITIONS THEREOF” (THE CHILDREN'S MEDICAL CENTER CORPORATION, priority 2022, published 2026)",
  "origin": "cited, not measured here",
  "key": {"G9a/GLP": {"test_system": "G9a/GLP", "settings": "SAM-competitive manner"}, "HMT SU(VAR)3-9": {"molecular_target": "HMT SU(VAR)3-9 (Drosophila melanogaster, UniProt P45975)", "sequence (P45975 with tags, fused parts or gaps)": "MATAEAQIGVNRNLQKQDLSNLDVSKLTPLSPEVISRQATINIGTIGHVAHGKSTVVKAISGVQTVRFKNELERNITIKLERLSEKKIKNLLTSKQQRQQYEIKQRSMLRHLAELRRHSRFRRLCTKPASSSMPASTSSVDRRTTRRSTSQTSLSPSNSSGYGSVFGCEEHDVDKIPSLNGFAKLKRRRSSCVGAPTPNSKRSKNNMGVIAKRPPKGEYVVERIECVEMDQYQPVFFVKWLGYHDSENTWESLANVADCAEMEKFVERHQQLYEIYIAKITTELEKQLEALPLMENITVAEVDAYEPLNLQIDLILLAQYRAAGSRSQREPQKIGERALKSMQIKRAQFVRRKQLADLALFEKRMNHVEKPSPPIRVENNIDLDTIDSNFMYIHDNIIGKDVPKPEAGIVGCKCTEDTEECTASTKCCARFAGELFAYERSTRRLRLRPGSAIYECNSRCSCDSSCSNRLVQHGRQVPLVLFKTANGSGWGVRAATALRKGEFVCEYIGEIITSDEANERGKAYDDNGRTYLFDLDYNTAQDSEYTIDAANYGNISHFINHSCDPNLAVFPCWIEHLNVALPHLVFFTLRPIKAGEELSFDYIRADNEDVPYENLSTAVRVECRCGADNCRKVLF"}, "Lys4-specific SET7/9": {"molecular_target": "T1, Lys4-specific SET7/9 (Homo sapiens, UniProt Q8WTS6)", "T1 sequence (Q8WTS6 1-366)": "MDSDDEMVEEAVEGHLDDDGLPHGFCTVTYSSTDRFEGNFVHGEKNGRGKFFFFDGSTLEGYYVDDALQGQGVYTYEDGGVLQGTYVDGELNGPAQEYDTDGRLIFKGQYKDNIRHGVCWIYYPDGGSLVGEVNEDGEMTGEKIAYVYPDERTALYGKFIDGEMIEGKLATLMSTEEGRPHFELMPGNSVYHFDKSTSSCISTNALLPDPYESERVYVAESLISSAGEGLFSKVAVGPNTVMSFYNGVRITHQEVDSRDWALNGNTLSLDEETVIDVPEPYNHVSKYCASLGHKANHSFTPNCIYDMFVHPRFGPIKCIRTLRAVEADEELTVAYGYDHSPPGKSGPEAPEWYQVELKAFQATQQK"}, "DIM5": {"molecular_target": "T2, DIM5 (Neurospora crassa, UniProt Q8X225)", "T2 sequence (Q8X225 1-331)": "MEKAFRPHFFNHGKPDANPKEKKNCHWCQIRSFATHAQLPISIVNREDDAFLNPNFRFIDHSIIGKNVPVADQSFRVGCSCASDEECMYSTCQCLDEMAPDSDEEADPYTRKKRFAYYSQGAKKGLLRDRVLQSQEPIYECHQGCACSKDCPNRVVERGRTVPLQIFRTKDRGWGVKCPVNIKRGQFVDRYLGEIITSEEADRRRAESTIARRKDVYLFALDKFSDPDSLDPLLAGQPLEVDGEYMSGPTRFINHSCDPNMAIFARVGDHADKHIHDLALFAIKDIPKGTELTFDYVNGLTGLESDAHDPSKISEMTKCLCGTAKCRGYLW"}, "[1]": {"molecular_target": "T3, class III isoenzyme SIRT1 (Homo sapiens, UniProt Q96EB6)", "T3 sequence (Q96EB6 1-747)": "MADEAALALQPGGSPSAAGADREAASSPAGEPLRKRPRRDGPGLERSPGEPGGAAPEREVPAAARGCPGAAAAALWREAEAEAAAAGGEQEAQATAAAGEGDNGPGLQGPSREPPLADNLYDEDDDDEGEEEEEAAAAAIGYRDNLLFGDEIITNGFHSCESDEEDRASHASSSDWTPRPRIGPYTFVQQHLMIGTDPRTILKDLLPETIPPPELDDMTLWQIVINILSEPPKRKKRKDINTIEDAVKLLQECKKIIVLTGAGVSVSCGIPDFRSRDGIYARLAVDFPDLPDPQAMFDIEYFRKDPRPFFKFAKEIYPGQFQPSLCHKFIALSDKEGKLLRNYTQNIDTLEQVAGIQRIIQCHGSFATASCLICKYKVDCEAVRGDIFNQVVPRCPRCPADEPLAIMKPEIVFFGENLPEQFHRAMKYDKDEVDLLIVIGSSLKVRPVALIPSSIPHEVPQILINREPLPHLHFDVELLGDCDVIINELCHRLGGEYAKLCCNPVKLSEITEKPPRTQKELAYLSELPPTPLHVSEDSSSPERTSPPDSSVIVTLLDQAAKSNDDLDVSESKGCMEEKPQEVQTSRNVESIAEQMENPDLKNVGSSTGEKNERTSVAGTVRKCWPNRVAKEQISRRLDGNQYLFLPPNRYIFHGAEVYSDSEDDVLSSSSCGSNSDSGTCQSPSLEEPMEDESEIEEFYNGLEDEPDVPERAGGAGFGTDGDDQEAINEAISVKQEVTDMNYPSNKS"}, "JMJD2E": {"molecular_target": "T4, JMJD2E (Homo sapiens, UniProt B2RXH2)", "T4 sequence (B2RXH2 1-506)": "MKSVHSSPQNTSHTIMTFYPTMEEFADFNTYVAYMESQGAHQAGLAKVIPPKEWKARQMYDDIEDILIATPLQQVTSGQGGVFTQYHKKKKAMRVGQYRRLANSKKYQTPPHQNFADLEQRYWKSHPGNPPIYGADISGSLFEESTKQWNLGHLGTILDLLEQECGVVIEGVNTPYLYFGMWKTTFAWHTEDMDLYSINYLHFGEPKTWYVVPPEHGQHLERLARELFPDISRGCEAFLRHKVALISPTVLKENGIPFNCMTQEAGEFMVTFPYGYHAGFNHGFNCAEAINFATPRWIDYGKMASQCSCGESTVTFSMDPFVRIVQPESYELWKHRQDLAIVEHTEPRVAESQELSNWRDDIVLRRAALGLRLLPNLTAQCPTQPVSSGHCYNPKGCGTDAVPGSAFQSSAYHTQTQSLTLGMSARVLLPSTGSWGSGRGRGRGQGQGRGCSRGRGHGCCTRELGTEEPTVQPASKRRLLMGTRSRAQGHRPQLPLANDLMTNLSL", "settings": "ECSD enzymatic assays"}},
  "data": [
    {"smiles": "COc1ccc(C(=O)Oc2ccc(CCn3c(NC(=O)c4ccc(C(F)(F)F)cc4)nc4cc(C(=O)O)ccc43)cc2)cc1", "note": "[BIX-01338]", "values": [
      {"measurement": "G9a/GLP effective conc.", "setting": "G9a/GLP", "value": "G9a/GLP effective conc. = 15 μM"}
    ]},
    {"smiles": "CN1C(=O)C23CC4([C@]56C[C@@]78SS[C@@](CO)(C(=O)N7[C@H]5Nc5ccccc56)N(C)C8=O)c5ccccc5NC4N2C(=O)[C@]1(CO)SS3", "note": "(stereo partly shown) [Chaetocin]", "values": [
      {"measurement": "IC50", "setting": "HMT SU(VAR)3-9", "value": 0.8, "unit": "µM"},
      {"measurement": "IC50", "setting": "Lys20-specific PRSET7", "value": "> 90", "unit": "µM"},
      {"measurement": "IC50", "setting": "Lys4-specific SET7/9", "value": "> 90", "unit": "µM"},
      {"measurement": "IC50", "setting": "DIM5", "value": 3, "unit": "µM"},
      {"measurement": "IC50", "setting": "Lys27-specific EZH2", "value": "> 90", "unit": "µM"},
      {"measurement": "IC50", "setting": "G9a", "value": 2.5, "unit": "µM"}
    ]},
    {"smiles": "CCCCc1nc2cc(/C=C/C(=O)NO)ccc2n1CCN(CC)CC", "note": "[SB939, Pracinostat]", "values": [
      {"measurement": "activity against the class III isoenzyme SIRT1", "setting": "[1]", "value": "no activity"}
    ]},
    {"smiles": "COc1cc2c(NC3CCN(C)CC3)nc(N3CCCN(C)CC3)nc2cc1OCCOCCN(C)C", "note": "[UNC0321]", "values": [
      {"measurement": "selectivity over JMJD2E", "setting": "JMJD2E", "value": "> 1000", "unit": "fold"},
      {"measurement": "IC50", "setting": "JMJD2E; inactive", "value": "> 40", "unit": "µM"}
    ]}
  ]
}
